Reference: PubChem BioAssay (NCI)
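Cells were grown in 96-well plates and exposed to each compound for 48 hours at five concentrations; endpoints were interpolated linearly between bracketing concentrations, or set to the highest concentration if not reached. The concentration for 50% growth inhibition is given as GI50. At the TGI there is no net growth.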

Legend:
Test in all cases: growth of human tumour cells (NCI), 48 h
786-0 renal = system: 786-0 renal
A498 renal = system: A498 renal
A549 NSCLC = system: A549 NSCLC
ACHN renal = system: ACHN renal
BT-549 breast = system: BT-549 breast
CAKI-1 renal = system: CAKI-1 renal
CCRF-CEM leukemia = system: CCRF-CEM leukemia
COLO 205 colon = system: COLO 205 colon
DU-145 prostate = system: DU-145 prostate
EKVX NSCLC = system: EKVX NSCLC
HCC-2998 colon = system: HCC-2998 colon
HCT-116 colon = system: HCT-116 colon
HCT-15 colon = system: HCT-15 colon
HL-60(TB) leukemia = system: HL-60(TB) leukemia
HOP-62 NSCLC = system: HOP-62 NSCLC
HOP-92 NSCLC = system: HOP-92 NSCLC
HS 578T breast = system: HS 578T breast
HT29 colon = system: HT29 colon
IGROV1 ovarian = system: IGROV1 ovarian
K-562 leukemia = system: K-562 leukemia
KM12 colon = system: KM12 colon
LOX IMVI melanoma = system: LOX IMVI melanoma
M14 melanoma = system: M14 melanoma
MALME-3M melanoma = system: MALME-3M melanoma
MCF7 breast = system: MCF7 breast
MDA-MB-231 breast = system: MDA-MB-231 breast
MDA-MB-435 = system: MDA-MB-435
MOLT-4 leukemia = system: MOLT-4 leukemia
NCI-H226 lung = system: NCI-H226 lung
NCI-H23 lung = system: NCI-H23 lung
NCI-H460 lung = system: NCI-H460 lung
NCI-H522 lung = system: NCI-H522 lung
NCI/ADR-RES ovarian = system: NCI/ADR-RES ovarian
OVCAR-3 ovarian = system: OVCAR-3 ovarian
OVCAR-4 ovarian = system: OVCAR-4 ovarian
OVCAR-5 ovarian = system: OVCAR-5 ovarian
OVCAR-8 ovarian = system: OVCAR-8 ovarian
PC-3 prostate = system: PC-3 prostate
RPMI-8226 leukemia = system: RPMI-8226 leukemia
RXF 393 renal = system: RXF 393 renal
SF-268 CNS = system: SF-268 CNS
SF-295 CNS = system: SF-295 CNS
SF-539 CNS = system: SF-539 CNS
SK-MEL-2 melanoma = system: SK-MEL-2 melanoma
SK-MEL-28 melanoma = system: SK-MEL-28 melanoma
SK-MEL-5 melanoma = system: SK-MEL-5 melanoma
SK-OV-3 ovarian = system: SK-OV-3 ovarian
SN12C renal = system: SN12C renal
SNB-19 CNS = system: SNB-19 CNS
SNB-75 CNS = system: SNB-75 CNS
SR leukemia = system: SR leukemia
SW-620 colon = system: SW-620 colon
T-47D breast = system: T-47D breast
TK-10 renal = system: TK-10 renal
U251 CNS = system: U251 CNS
UACC-257 melanoma = system: UACC-257 melanoma
UACC-62 melanoma = system: UACC-62 melanoma
UO-31 renal = system: UO-31 renal

Work on `C=C(C)C(=O)O[C@H]1C[C@@]2(C)OC(=CC2=O)/C(CO)=C\[C@H]2OC(=O)C(=C)[C@H]12` yielded a GI50 (786-0 renal) of 65.2 nM, a TGI (786-0 renal) of 144 nM and a GI50 (A498 renal) of 565 nM. For the same compound, the TGI (A498 renal) was 1290 nM, the GI50 (A549 NSCLC) was 840 nM and the TGI (A549 NSCLC) was > 3.33 µM. The GI50 (ACHN renal) was 61.2 nM, the TGI (ACHN renal) was 228 nM and the GI50 (BT-549 breast) was 92.8 nM. The TGI (BT-549 breast) was 292 nM, the GI50 (CAKI-1 renal) was 87.9 nM and the TGI (CAKI-1 renal) was 301 nM. For the same compound, the GI50 (CCRF-CEM leukemia) was 27.4 nM, the TGI (CCRF-CEM leukemia) was 259 nM and the GI50 (COLO 205 colon) was 32.7 nM. It also gave a TGI (COLO 205 colon) of 95.4 nM, a GI50 (DU-145 prostate) of 120 nM and a TGI (DU-145 prostate) of 673 nM. The GI50 (EKVX NSCLC) was 137 nM, the TGI (EKVX NSCLC) was 1070 nM and the GI50 (HCC-2998 colon) was 216 nM. For the same compound, the TGI (HCC-2998 colon) was 535 nM, the GI50 (HCT-116 colon) was 60.4 nM and the TGI (HCT-116 colon) was 163 nM. The GI50 (HCT-15 colon) was 70.3 nM, the TGI (HCT-15 colon) was 223 nM and the GI50 (HL-60(TB) leukemia) was 67.7 nM. The TGI (HL-60(TB) leukemia) was 189 nM, the GI50 (HOP-62 NSCLC) was 654 nM and the TGI (HOP-62 NSCLC) was 2350 nM. For the same compound, the GI50 (HOP-92 NSCLC) was 72.6 nM, the TGI (HOP-92 NSCLC) was 173 nM and the GI50 (HS 578T breast) was 294 nM. The TGI (HS 578T breast) was > 3.33 µM, the GI50 (HT29 colon) was 112 nM and the TGI (HT29 colon) was 356 nM. It also gave a GI50 (IGROV1 ovarian) of 145 nM, a TGI (IGROV1 ovarian) of 562 nM and a GI50 (K-562 leukemia) of 94.6 nM. It also gave a TGI (K-562 leukemia) of 621 nM, a GI50 (KM12 colon) of 509 nM and a TGI (KM12 colon) of 1120 nM. It also gave a GI50 (LOX IMVI melanoma) of 53.3 nM, a TGI (LOX IMVI melanoma) of 106 nM and a GI50 (M14 melanoma) of 72.3 nM. It also gave a TGI (M14 melanoma) of 178 nM, a GI50 (MALME-3M melanoma) of 70.8 nM and a TGI (MALME-3M melanoma) of 203 nM. For the same compound, the GI50 (MCF7 breast) was 86.1 nM, the TGI (MCF7 breast) was 418 nM and the GI50 (MDA-MB-231 breast) was 79.4 nM. The TGI (MDA-MB-231 breast) was 206 nM, the GI50 (MDA-MB-435) was 66.4 nM and the TGI (MDA-MB-435) was 146 nM. For the same compound, the GI50 (MOLT-4 leukemia) was 80.2 nM, the TGI (MOLT-4 leukemia) was 265 nM and the GI50 (NCI-H226 lung) was 68.5 nM. It also gave a TGI (NCI-H226 lung) of 172 nM, a GI50 (NCI-H23 lung) of 153 nM and a TGI (NCI-H23 lung) of 421 nM. For the same compound, the GI50 (NCI-H460 lung) was 424 nM, the TGI (NCI-H460 lung) was 2070 nM and the GI50 (NCI-H522 lung) was 7.73 nM. The TGI (NCI-H522 lung) was 24.5 nM, the GI50 (NCI/ADR-RES ovarian) was 224 nM and the TGI (NCI/ADR-RES ovarian) was > 3.33 µM. It also gave a GI50 (OVCAR-3 ovarian) of 55.2 nM, a TGI (OVCAR-3 ovarian) of 149 nM and a GI50 (OVCAR-4 ovarian) of 151 nM. It also gave a TGI (OVCAR-4 ovarian) of 652 nM, a GI50 (OVCAR-5 ovarian) of 84.8 nM and a TGI (OVCAR-5 ovarian) of 226 nM. The GI50 (OVCAR-8 ovarian) was 115 nM, the TGI (OVCAR-8 ovarian) was > 1540 nM and the GI50 (PC-3 prostate) was 190 nM. It also gave a TGI (PC-3 prostate) of 985 nM, a GI50 (RPMI-8226 leukemia) of 80.9 nM and a TGI (RPMI-8226 leukemia) of 229 nM. For the same compound, the GI50 (RXF 393 renal) was 57.6 nM, the TGI (RXF 393 renal) was 120 nM and the GI50 (SF-268 CNS) was 168 nM. For the same compound, the TGI (SF-268 CNS) was 836 nM, the GI50 (SF-295 CNS) was 575 nM and the TGI (SF-295 CNS) was 1500 nM. The GI50 (SF-539 CNS) was 88 nM, the TGI (SF-539 CNS) was 287 nM and the GI50 (SK-MEL-2 melanoma) was 120 nM. For the same compound, the TGI (SK-MEL-2 melanoma) was 490 nM, the GI50 (SK-MEL-28 melanoma) was 66.1 nM and the TGI (SK-MEL-28 melanoma) was 148 nM. For the same compound, the GI50 (SK-MEL-5 melanoma) was 318 nM, the TGI (SK-MEL-5 melanoma) was 1230 nM and the GI50 (SK-OV-3 ovarian) was 1190 nM. For the same compound, the TGI (SK-OV-3 ovarian) was > 3.33 µM, the GI50 (SN12C renal) was 114 nM and the TGI (SN12C renal) was > 1230 nM. For the same compound, the GI50 (SNB-19 CNS) was 937 nM, the TGI (SNB-19 CNS) was > 3.33 µM and the GI50 (SNB-75 CNS) was 132 nM. The TGI (SNB-75 CNS) was 1700 nM, the GI50 (SR leukemia) was 43.7 nM and the TGI (SR leukemia) was 249 nM. It also gave a GI50 (SW-620 colon) of 52.1 nM, a TGI (SW-620 colon) of 147 nM and a GI50 (T-47D breast) of 72.9 nM. The TGI (T-47D breast) was 588 nM, the GI50 (TK-10 renal) was 57.3 nM and the TGI (TK-10 renal) was 127 nM. For the same compound, the GI50 (U251 CNS) was 159 nM, the TGI (U251 CNS) was 579 nM and the GI50 (UACC-257 melanoma) was 74 nM. The TGI (UACC-257 melanoma) was 213 nM, the GI50 (UACC-62 melanoma) was 56.9 nM and the TGI (UACC-62 melanoma) was 123 nM. The GI50 (UO-31 renal) was 68.5 nM and the TGI (UO-31 renal) was 177 nM.
